Source: patent publication US11213027B2, “Combined administration of a penetration agent and a sulfur containing compound to plants” (THE STATE OF ISRAEL, MINISTRY OF AGRICULTURE & RURAL …, priority 2016, dated 2022)

Assays:
[1] = tested on: cv. Early Sweet vines; test: Bud break on whole vines, greenhouse in Argaman, Jordan Valley; format: in vivo, Vitis vinifera; conditions: Example 21, FIGS. 23A, 23B; 6% DADS alone (DADS 6% control); natural bud break about 25-45%
[2] = tested on: cv. Early Sweet vines; test: Bud break on whole vines in a vineyard, Jordan Valley (spur pruning, hot winter); format: in vivo, Vitis vinifera; conditions: Example 2, FIG. 2, negative control Triton, positive control 5% HC
[3] = tested on: berries of cv. Early Sweet vines; test: TSS (sugar) level of berries of treated vines; format: in vivo, Vitis vinifera; conditions: Example 3, FIG. 4; 6% DADS with 2% Armobreak®; Brix meter; versus control and HC
[4] = tested on: grapevine buds (cuttings, whole vine); conditions: cited from earlier work
[5] = tested on: Vitis vinifera cv. Early Sweet single-node cuttings; test: Bud break on grapevine single-node cuttings in growth chamber; format: in vivo
[6] = tested on: corms, tubers and apple buds; conditions: cited from earlier work
[7] = tested on: whole vines in vineyards; test: Overall bud break in vineyards, summary over the examples; format: in vivo, grapevine; conditions: spur pruned vineyard in region with higher chilling (FIG. 19, Example 17)

In the case of `C=CCSSCC=C` [DADS, diallyl disulfide], the bud break [1] is reported as “results within the range of the natural bud break”, the bud break ([2]; 2% DADS with 0.02% Triton X-100) is reported as “no effect” and the bud break ([2]; 4% DADS with 0.02% Triton X-100) is reported as “slight enhancement in bud break in comparison to the negative control”. For the same compound, the “TSS levels of the berries (ripening)” value [3] was “increase the total soluble solids (TSS) level of the berries in comparison to the control”, the “bud break enhancing effect” value ([4]; applied to the whole vine, rather than to cuttings) was “very limited and inferior to the known HC” and the “grapevine bud break enhancement among garlic volatile compounds” value ([4]; volatile compounds containing sulfur and allyl groups) was “particularly effective”. For the same compound, the bud break ([5]; Example 1, FIG. 1, 1% DADS sprayed with 0.02% Triton X-100, compared with 0.1%, 5% and 10% DADS) was “best result”, the bud break ([5]; Example 1, FIG. 1, 5% DADS sprayed with 0.02% Triton X-100, control 0.02% Triton X-100 only, 22° C., monitored to day 28) was “toxic and actually inhibit bud break” and the bud break ([5]; Example 1, FIG. 1, 10% DADS sprayed with 0.02% Triton X-100, control 0.02% Triton X-100 only, monitored to day 28) was “toxic and actually inhibit bud break”. The bud break [6] was “enhanced bud break of corms, tubers and apple buds”.

In the case of `C=CCSCC=C` [DAS, Diallyl Sulfide], the bud break ([5]; Example 5, FIG. 7, higher concentrations of DAS (0.1%, 1%, 5% tested) with 2% Armobreak®, control 2% Armobreak®) is reported as “may reduce bud breaking” and the bud break ([5]; Example 5, FIG. 7, relatively low concentrations of DAS (0.1%, 1%, 5% tested) with 2% Armobreak®, control 2% Armobreak®) is reported as “enhance bud breaking in grapevine cuttings”.

With `N#CN` [HC, hydrogen cyanamide] the bud break [7] was “a milder effect or no effect”.
